Measured values from the NIST ThermoML archive (doi:10.1016/j.jct.2012.01.001).
± gives the expanded uncertainty stated by the source.

Assay: Molar enthalpy of transition or fusion
Settings: Crystal; DSC

`Oc1cccc2ccccc12` [1-naphthol] and `Oc1ccc2ccccc2c1` [2-hydroxynaphthalene] are within error of each other in “Molar enthalpy of transition or fusion” value: 5.17 ± 0.155 kcal/mol for the first, 5.04 ± 0.151 kcal/mol for the second.

For `COc1cc(C=O)ccc1O` [vanillin], the “Molar enthalpy of transition or fusion” value was 5.34 ± 0.16 kcal/mol.
